Measured values published in ChEMBL document CHEMBL1147683, “Synthesis of new and potent analogues of anti-tuberculosis agent 5-nitro-furan-2-carboxylic acid 4-(4-benzyl-piperazin-1-yl)-benzylamide with improved bioavailability” (Bioorg Med Chem Lett, 2006).
≈ marks a conversion by molar mass, not a printed value.

Tests used:
[1] = test system: Mycobacterium tuberculosis; assay: Antituberculosis activity against Mycobacterium tuberculosis; assay type: functional
[2] = Half life in mouse serum at 300 mg/kg, po; assay type: ADME, organism-based; set-up: dose 300 mg/kg, route oral
[3] = (§1) Cmax in mouse serum at 300 mg/kg, po; assay type: ADME, organism-based; set-up: dose 300 mg/kg, route oral; conditions: serum
[4] = Tmax in mouse at 300 mg/kg, po; assay type: ADME, organism-based; set-up: dose 300 mg/kg, route oral; conditions: in vivo
Mus musculus = assay: as §1; assay type: ADME, organism-based; set-up: dose 300 mg/kg, route oral; conditions: in vivo

| Structure (SMILES) | MIC90 [1] [µg/mL] | half-life [2] [h] | Cmax [3] [ng/mL] | Tmax [4] [h] | Cmax (Mus musculus) [ng/mL] |
| --- | --- | --- | --- | --- | --- |
| CC(C)(C)OC(=O)N1CCN(c2ccc(CNC(=O)c3ccc([N+](=O)[O-])o3)cn2)CC1 | 0.05 (≈ 0.116 µM) | 2.3 | 1230 | 0.5 | – |
| O=C(NCc1ccc(N2CCN(Cc3ccccc3)CC2)cc1)c1ccc([N+](=O)[O-])o1 | 0.0125 (≈ 0.0297 µM) | – | – | – | – |
| Cl.O=C(NCc1ccc(N2CCN(Cc3ccccc3)CC2)cc1)c1ccc([N+](=O)[O-])o1 | – | – | – | – | 2240 |
| CCCNC(=O)N1CCN(c2ccc(CNC(=O)c3ccc([N+](=O)[O-])o3)cc2)CC1 | 0.2 (≈ 0.481 µM) | 1.5 | 4800 | 2.5 | – |
| CN1CCN(c2ccc3c(c2)CCN(C(=O)c2ccc([N+](=O)[O-])o2)C3)CC1 | 0.2 (≈ 0.54 µM) | – | – | – | – |
| CC(C)(C)OC(=O)N1CCN(c2ccc(CNC(=O)c3ccc([N+](=O)[O-])o3)cc2)CC1 | 0.025 (≈ 0.0581 µM) | – | – | – | – |
| O=C(NCc1ccc(N2CCCN(Cc3ccccc3)CC2)cc1)c1ccc([N+](=O)[O-])o1 | 0.8 (≈ 1.84 µM) | – | – | – | – |
| C=CCOC(=O)N1CCN(c2ccc(CNC(=O)c3ccc([N+](=O)[O-])o3)cc2)CC1 | 0.5 (≈ 1.21 µM) | – | – | – | – |
| O=C(NCc1ccc(N2CCN(Cc3ccccc3)CC2)nc1)c1ccc([N+](=O)[O-])o1 | 0.0062 (≈ 0.0147 µM) | 1.3 | 1470 | 0.5 | – |
| CC(C)NC(=O)N1CCCN(c2ccc(CNC(=O)c3ccc([N+](=O)[O-])o3)cc2)CC1 | 0.8 (≈ 1.86 µM) | 2 | 7400 | 0.5 | – |
| CCOC(=O)N1CCN(c2ccc(CNC(=O)c3ccc([N+](=O)[O-])o3)cn2)CC1 | 0.05 (≈ 0.124 µM) | 0.7 | 6560 | 2.5 | – |
| O=C(c1ccc([N+](=O)[O-])o1)N1CCc2cc(N3CCN(Cc4ccccc4)CC3)ccc2C1 | 0.0062 (≈ 0.0139 µM) | – | – | – | – |
| CCOC(=O)N1CCN(c2ccc(CNC(=O)c3ccc([N+](=O)[O-])o3)cc2)CC1 | 0.0062 (≈ 0.0154 µM) | – | – | – | – |
| CCOC(=O)N1CCCN(c2ccc(CNC(=O)c3ccc([N+](=O)[O-])o3)cc2)CC1 | 0.1 (≈ 0.24 µM) | – | – | – | – |
| CC(C)COC(=O)N1CCN(c2ccc(CNC(=O)c3ccc([N+](=O)[O-])o3)cc2)CC1 | 0.05 (≈ 0.116 µM) | – | – | – | – |
| CC(C)NC(=O)N1CCN(c2ccc(CNC(=O)c3ccc([N+](=O)[O-])o3)cc2)CC1 | 0.8 (≈ 1.93 µM) | – | – | – | – |
| CC(C)NC(=O)N1CCN(c2ccc(CNC(=O)c3ccc([N+](=O)[O-])o3)cn2)CC1 | 0.56 (≈ 1.34 µM) | 0.5 | 22000 | 2.5 | – |
| O=C(c1ccc([N+](=O)[O-])o1)N1CCc2cc(N3CCSCC3)ccc2C1 | 0.4 (≈ 1.07 µM) | – | – | – | – |
| COC(=O)N1CCN(c2ccc(CNC(=O)c3ccc([N+](=O)[O-])o3)cc2)CC1 | 0.1 (≈ 0.257 µM) | – | – | – | – |
| Cl.O=C(c1ccc([N+](=O)[O-])o1)N1CCc2cc(N3CCN(Cc4ccccc4)CC3)ccc2C1 | – | 3.5 | 736 | 0.5 | – |
| CCCCOC(=O)N1CCN(c2ccc(CNC(=O)c3ccc([N+](=O)[O-])o3)cc2)CC1 | 0.05 (≈ 0.116 µM) | – | – | – | – |
| CN1CCN(c2ccc3c(c2)CCN(C(=O)c2ccc([N+](=O)[O-])o2)C3)CC1.Cl | – | 2 | 280 | 0.5 | – |
| CC(C)(C)OC(=O)N1CCCN(c2ccc(CNC(=O)c3ccc([N+](=O)[O-])o3)cc2)CC1 | 0.1 (≈ 0.225 µM) | 7.5 | 280 | 0.5 | – |
